Measured values taken from the supplement of paper PMC4862054.

What was measured:
CAL-51 [1] = settings: 72 h
How it was run: (§1)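 In this assay, breast cancer cell lines spent 72 h with compound at 5 concentrations in 10-fold steps over a compound-specific 10,000-fold range. The first readout was cell death by CellTox Green fluorescence, and the second was viability by CellTiter-Glo luminescence, each normalised per plate to 0.1 % DMSO and a positive kill control. EC50 came from the dose-response curves, censored at the top concentration.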

DU-4475 [2] = settings: 72 h
How it was run: as §1

CAL-85-1 [3] = settings: 72 h
How it was run: (§2)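 Viability of breast cancer cell lines was measured with CellTiter-Blue after 72 h of incubation on compound-loaded 384-well plates. Cells were seeded in 20 µl onto compound dissolved in 5 µl medium, and 2.5 µl reagent was added for 2 h at 37 °C before reading at 560/590 nm. EC50 was fitted from percent-inhibition dose-response data censored at the highest concentration, normalised per plate to vehicle and a positive kill control, with zero drug sensitivity score rows dropped.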

DU-4475 [4] = settings: 72 h; remark: listed apart in the source
How it was run: as §2

HDQ-P1 [5] = settings: 72 h
How it was run: as §2

HCC1937 [6] = settings: 72 h
How it was run: as §2

Hs578T [7] = settings: 72 h
How it was run: as §2

CAL-51 [8] = settings: 72 h; remark: listed apart in the source
Procedure: (§3)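 Drug sensitivity and resistance testing (DSRT) of breast cancer cell lines in 384-well plates, 5 concentrations in 10-fold dilutions over a compound-specific 10,000-fold range. After 72 h, cytotoxicity was read by CellTox Green fluorescence and viability by CellTiter-Glo luminescence (multiplexed), normalised to DMSO and benzethonium chloride controls. EC50 is the inflection point of the fitted dose-response curve (bottom asymptote free, so it can be relative for partial curves) and is censored at the highest tested concentration. Rows with DSS 0 (no meaningful response) were excluded.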

DU-4475 [9] = settings: 72 h; remark: listed apart in the source
Procedure: as §3

MDA-MB-231 [10] = settings: 72 h
Procedure: as §3

MDA-MB-453 [11] = test: drug sensitivity score (DSS), CellTox Green (DSS (AUC-based score)); higher = stronger drug effect (viability inhibition or cytotoxicity); extreme values may be limits of the assay; settings: incubation time: 72 h
How it was run: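 Each compound occupied 5 concentrations in 10-fold steps over its own 10,000-fold range in 384-well plates, into which breast cancer cell lines were seeded as 20 µl suspension. Following 72 h of incubation, CellTox Green fluorescence (485/520 nm) was measured, and CellTiter-Glo luminescence was measured after 10 min at room temperature. Plates were individually normalised to 0.1 % DMSO and a positive kill control. From the area under the fitted dose-response curve, a drug sensitivity score was calculated.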

BT-474 [12] = settings: 72 h
How it was run: as §1

BT-549 [13] = settings: 72 h
How it was run: as §1

CAL-120 [14] = settings: 72 h
How it was run: as §1

CAL-148 [15] = settings: 72 h
How it was run: as §1

CAL-85-1 [16] = settings: 72 h; remark: listed apart in the source
How it was run: as §1

HCC1143 [17] = settings: 72 h
How it was run: as §1

HCC1599 [18] = settings: 72 h
How it was run: as §1

HCC1937 [19] = settings: 72 h; remark: listed apart in the source
How it was run: as §1

HDQ-P1 [20] = settings: 72 h; remark: listed apart in the source
How it was run: as §1

Hs578T [21] = settings: 72 h; remark: listed apart in the source
How it was run: as §1

MCF-10A [22] = settings: 72 h
How it was run: as §1

MDA-MB-231 [23] = settings: 72 h; remark: listed apart in the source
How it was run: as §1

MDA-MB-436 [24] = settings: 72 h
How it was run: as §1

MDA-MB-453 [25] = settings: 72 h
How it was run: as §1

MDA-MB-468 [26] = settings: 72 h
How it was run: as §1

MFM-223 [27] = settings: 72 h
How it was run: as §1

SK-BR-3 [28] = settings: 72 h
How it was run: as §1

CAL-148 [29] = settings: 72 h; remark: listed apart in the source
How it was run: as §2

CAL-51 [30] = settings: 72 h; remark: listed apart in the source
How it was run: as §2

MDA-MB-453 [31] = settings: 72 h; remark: listed apart in the source
How it was run: as §2

BT-474 [32] = settings: 72 h; remark: listed apart in the source
How it was run: as §2

BT-549 [33] = settings: 72 h; remark: listed apart in the source
How it was run: as §2

CAL-120 [34] = settings: 72 h; remark: listed apart in the source
How it was run: as §2

HCC1143 [35] = settings: 72 h; remark: listed apart in the source
How it was run: as §2

HCC1599 [36] = settings: 72 h; remark: listed apart in the source
How it was run: as §2

MDA-MB-231 [37] = settings: 72 h; remark: listed apart in the source
How it was run: as §2

MDA-MB-436 [38] = settings: 72 h; remark: listed apart in the source
How it was run: as §2

MDA-MB-468 [39] = settings: 72 h; remark: listed apart in the source
How it was run: as §2

MFM-223 [40] = settings: 72 h; remark: listed apart in the source
How it was run: as §2

SK-BR-3 [41] = settings: 72 h; remark: listed apart in the source
How it was run: as §2

BT-474 [42] = settings: 72 h; remark: listed apart in the source
Procedure: as §3

BT-549 [43] = settings: 72 h; remark: listed apart in the source
Procedure: as §3

CAL-120 [44] = settings: 72 h; remark: listed apart in the source
Procedure: as §3

CAL-85-1 [45] = settings: 72 h; remark: listed apart in the source
Procedure: as §3

HDQ-P1 [46] = settings: 72 h; remark: listed apart in the source
Procedure: as §3

Hs578T [47] = settings: 72 h; remark: listed apart in the source
Procedure: as §3

MCF-10A [48] = settings: 72 h; remark: listed apart in the source
Procedure: as §3

MDA-MB-468 [49] = settings: 72 h; remark: listed apart in the source
Procedure: as §3

MFM-223 [50] = settings: 72 h; remark: listed apart in the source
Procedure: as §3

## CCCS(=O)(=O)Nc1ccc(F)c(C(=O)c2c[nH]c3ncc(-c4ccc(Cl)cc4)cc23)c1F [Vemurafenib]
CAL-51 [1]
  EC50, CellTiter-Glo: 1680 nM
DU-4475 [2]
  EC50, CellTiter-Glo: 551 nM
CAL-85-1 [3]
  EC50, CellTiter-Blue viability: > 10000 nM
DU-4475 [4]
  EC50, CellTiter-Blue viability: 295 nM
HDQ-P1 [5]
  EC50, CellTiter-Blue viability: 3680 nM
HCC1937 [6]
  EC50, CellTiter-Blue viability: 7820 nM
Hs578T [7]
  EC50, CellTiter-Blue viability: 9430 nM
CAL-51 [8]
  EC50, CellTox Green: 21.9 nM
DU-4475 [9]
  EC50, CellTox Green: 421 nM
MDA-MB-231 [10]
  EC50, CellTox Green: > 10000 nM
MDA-MB-453 [11]
  drug sensitivity score: 0

## C=CC(=O)Nc1cc2c(Nc3ccc(F)c(Cl)c3)ncnc2cc1OCCCN1CCOCC1 [Canertinib]
BT-474 [12]
  EC50, CellTiter-Glo: 2600 nM
BT-549 [13]
  EC50, CellTiter-Glo: 2110 nM
CAL-120 [14]
  EC50, CellTiter-Glo: 5390 nM
CAL-148 [15]
  EC50, CellTiter-Glo: 1390 nM
CAL-51 [1]
  EC50, CellTiter-Glo: 573 nM
CAL-85-1 [16]
  EC50, CellTiter-Glo: 595 nM
DU-4475 [2]
  EC50, CellTiter-Glo: 8210 nM
HCC1143 [17]
  EC50, CellTiter-Glo: 4710 nM
HCC1599 [18]
  EC50, CellTiter-Glo: 586 nM
HCC1937 [19]
  EC50, CellTiter-Glo: 3340 nM
HDQ-P1 [20]
  EC50, CellTiter-Glo: 930 nM
Hs578T [21]
  EC50, CellTiter-Glo: 5450 nM
MCF-10A [22]
  EC50, CellTiter-Glo: 106 nM
MDA-MB-231 [23]
  EC50, CellTiter-Glo: 1630 nM
MDA-MB-436 [24]
  EC50, CellTiter-Glo: 4370 nM
MDA-MB-453 [25]
  EC50, CellTiter-Glo: 3020 nM
MDA-MB-468 [26]
  EC50, CellTiter-Glo: 1120 nM
MFM-223 [27]
  EC50, CellTiter-Glo: 5500 nM
SK-BR-3 [28]
  EC50, CellTiter-Glo: 48.8 nM
CAL-148 [29]
  EC50, CellTiter-Blue viability: 3370 nM
CAL-51 [30]
  EC50, CellTiter-Blue viability: 4690 nM
CAL-85-1 [3]
  EC50, CellTiter-Blue viability: 361 nM
DU-4475 [4]
  EC50, CellTiter-Blue viability: 5980 nM
HDQ-P1 [5]
  EC50, CellTiter-Blue viability: 448 nM
MDA-MB-453 [31]
  EC50, CellTiter-Blue viability: 243 nM
BT-474 [32]
  EC50, CellTiter-Blue viability: 110 nM
BT-549 [33]
  EC50, CellTiter-Blue viability: 2480 nM
CAL-120 [34]
  EC50, CellTiter-Blue viability: 1720 nM
HCC1143 [35]
  EC50, CellTiter-Blue viability: 4170 nM
HCC1599 [36]
  EC50, CellTiter-Blue viability: 9080 nM
HCC1937 [6]
  EC50, CellTiter-Blue viability: 2250 nM
Hs578T [7]
  EC50, CellTiter-Blue viability: 3700 nM
MDA-MB-231 [37]
  EC50, CellTiter-Blue viability: 1820 nM
MDA-MB-436 [38]
  EC50, CellTiter-Blue viability: 811 nM
MDA-MB-468 [39]
  EC50, CellTiter-Blue viability: 571 nM
MFM-223 [40]
  EC50, CellTiter-Blue viability: 3020 nM
SK-BR-3 [41]
  EC50, CellTiter-Blue viability: 16.6 nM
BT-474 [42]
  EC50, CellTox Green: 9800 nM
BT-549 [43]
  EC50, CellTox Green: 9070 nM
CAL-120 [44]
  EC50, CellTox Green: 6660 nM
CAL-51 [8]
  EC50, CellTox Green: 3010 nM
CAL-85-1 [45]
  EC50, CellTox Green: 1620 nM
HDQ-P1 [46]
  EC50, CellTox Green: 3470 nM
Hs578T [47]
  EC50, CellTox Green: 2850 nM
MCF-10A [48]
  EC50, CellTox Green: 1690 nM
MDA-MB-231 [10]
  EC50, CellTox Green: 4920 nM
MDA-MB-468 [49]
  EC50, CellTox Green: 3210 nM
MFM-223 [50]
  EC50, CellTox Green: 6740 nM
MDA-MB-453 [11]
  drug sensitivity score: 0
